Measured values: patent US10227295B2, “Selective histone deactylase 6 inhibitors” (H. LEE MOFFITT CANCER CENTER AND RESEARCH INSTITUTE, INC., priority 2013, dated 2019)

How the values were obtained:
[1] = tested on: acetyl-tubulin and acetyl-histone3 in human melanoma cell lines; test: Western blot of HDAC substrate acetylation in human melanoma cells; type: cell-based; conditions: 24 hrs
Protocol: Error bars represent standard deviation from triplicates. This figure is representative of three independent experiments. (F,G,H) Cell cycle analysis of melanoma WM164, WM983A and WM793 human melanoma cell lines stained with propidium iodide. Data is representative of three experiments with similar results.
To confirm the selectivity of isotype specific HDACi, Western blot analysis was performed on the acetylation status of known HDAC substrates including histone H3 and H4, which are known Class I HDAC targets, and α-tubulin, a target for HDAC6. The doses required to impart the anti-proliferative effect coincided with that needed to increase acetylation of the respective HDAC substrates (FIG. 41F-41H). […] Conversely, HDAC6 selective inhibitors (HDAC6i) increase α-tubulin acetylation but not histone acetylation (FIG. 41F).

[2] = tested on: melanoma antigens gp100, MART1, TYRP1 and TYRP2 in human melanoma cell lines; test: Tumor antigen expression by qRT-PCR; type: cell-based; conditions: 48 hours
Protocol: (D) Expression of tumor antigens was measured in human WM164 non-target and HDAC6KD cells. (E) Expression of tumor antigens mart-1 and gp-100 was measured by western blot.
In addition to direct cytotoxicity, pan-HDACi have immunologic effects on melanoma including modulation of MHC, co-stimulatory molecules, and cytokine production. In both human and murine melanoma cell lines, genetic (FIG. 43A) and pharmacologic (FIG. 43B) disruption of HDAC6 led to increased surface expression of MHC I by flow cytometry.

STAT3 in APCs = test: STAT3 phosphorylation and recruitment to IL-10 gene promotor in APCs; type: cell-based
From the text: FIG. 26 is a flow chart depicting the experimental design of the in vitro antigen-presenting studies.
Human MCL cells display an enhanced expression of HDAC6. Disruption of HDAC6 in malignant B-cells inhibits their proliferation and is associated with induction of apoptosis. Pharmacologic or genetic disruption of HDAC6 in MCL cells augment their antigen-presenting capabilities leading to better T-cell activation and restoration of function of anergic Tcells in vitro. […] Disclosed herein is the rationale to use HDAC6 specific inhibitor(s) alone or in combination with STAT3 inhibitors in MCL.

[3] = tested on: antigen-specific T-cell responses; test: In vivo antigen-specific T-cell response to vaccination; design: species or system mice; conditions: in vivo treatment
From the text: Tubastatin A-treated macrophages are better activators of […] and restore the responsiveness of anergicT-cells in vitro. […] Mechanistically, Tubastatin-A disrupt […] pathway and tip the balance towards immunogenic rather than tolerogenic macrophages.

[4] = tested on: B16 murine melanoma cells; test: B16 melanoma cell growth inhibition MTS assay; type: cell-based; conditions: Mus musculus; B16 murine melanoma cells, 48 h, MTS
Protocol: B16 murine melanoma cells were plated at 5×10^3/well in 96 well flat bottom plates. The following day, media was changed to that containing various concentrations of HDACi or matched DMSO vehicle concentrations diluted in complete medium done in triplicate. Cells were incubated for 48 hours at 37° C. and 5% CO2. […] Briefly, 20 μL of reagent were added per well and incubated at 37° C. for 3 hours. […] All values were then normalized and expressed as a percentage of medium control (100%).

B16 melanoma = test: In vivo B16 melanoma tumor growth in C57BL/6 mice; conditions: 25 mg/kg, intraperitoneal, three times weekly, B16 subcutaneous
[5] = tested on: NRAS and BRAF mutant human melanoma cell lines; test: Human melanoma cell proliferation MTS assay; type: cell-based; conditions: 24 h, panel of human melanoma cell lines
Protocol: Cell proliferation was evaluated using various pan- and isotype selective HDACi in a broad panel of human melanoma cell lines. Briefly, cells were plated at 10×10^3/well in a 96 well flat bottom plate. The following day, media was changed to that containing different concentrations of HDACi or matched DMSO vehicle concentrations diluted in complete medium done in triplicate, all with a final concentration of less than 0.1% DMSO. Cells were incubated for 24 hours at 37° C. and 5% CO2. […] All values were then normalized and expressed as a percentage of medium control growth.

[6] = tested on: human melanoma cell lines; test: Cell cycle analysis by propidium iodide staining; type: cell-based
Protocol: Cells were treated with indicated doses of HDAC inhibitors or DMSO control and then trypsinized, washed, and rendered into a single cell suspension in 1 mL of DPBS. 4 mL ice cold 200 proof ethyl alcohol was added dropwise while vortexing to fix cells. Samples were washed and resuspended in 75% ethanol solution overnight. Then, cells were washed in PBS+0.1% Triton X-100 and counted. Equal numbers of cells were then stained in a solution containing 10 μg/mL RNAseA+1 μg/mL propidium iodide for 2 hours at room temperature. Data was then acquired using a FACSCaliber with at least 10,000 events collected. Cell cycle analysis was completed using ModFit LT (Verity Software House, Topsham, Me.).

Structure (SMILES): CN1CCc2c(c3ccccc3n2Cc2ccc(C(=O)NO)cc2)C1 [Tubastatin A, reference compound]
- acetylation of α-tubulin and histone [1]: increase acetyl-tubulin without modifying the acetylation status of Histone 3
- melanoma antigen expression at the mRNA level [2]: upregulation of melanoma antigens gp100, MART1, TYRP1 and TYRP2
- STAT3 phosphorylation and recruitment to the IL-10 gene promotor (STAT3 in APCs): decreased STAT3 phosphorylation and recruitment to the IL-10 gene promotor
- antigen-specific T-cell responses to vaccination [3]: enhances antigen-specific T-cell responses to vaccination
- GI50 [4]: 40.5 ± 1.21 µM
- tumor growth (B16 melanoma): delayed tumor growth
- concentration range inhibiting proliferation (in words) [5]: low micromolar range

Structure (SMILES): Nc1ccccc1NC(=O)c1ccc(CNc2nccc(-c3cccnc3)n2)cc1 [MGCD0103]
- cell cycle effects [6]: variable cell cycle effects
- acetylation of α-tubulin and histone [1]: unchanged
- concentration range inhibiting proliferation (in words) [5]: low micromolar range
